From patent US20060110456A1, “Method for biocidal and/or biostatic treatment and compositions therefor” (NATIONAL UNIVERSITY OF SINGAPORE, priority 2004, published 2006)
Counter-ions that a name gives are not always drawn. Like-named read-outs stand apart in the source and are kept apart here.

Experiments:
[1] = system: marine bacteria (26 strains); assay: Disk inhibition assay; type: cell-based, marine bacteria isolated from Singapore fouling communities; details: for zone of inhibition at 25 µg/disc: 25 μg per disc; for zone of inhibition at 50 µg/disc: 50 μg per disc
In short: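 Tablets or capsule powders suspended in sterile water at 2 mg ml^−1 and loaded onto disks; antibiotic discs (Amp, Ery, Str, Tet) served as comparison. Disks placed on swabbed lawns on Marine Agar, incubated overnight in the dark at 30° C. Zone of clearing diameter measured by calipers; three replicates on three occasions.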

marine bacteria = assay: Growth assay (absorbance, 96-well plates); type: cell-based, marine bacteria isolated from Singapore fouling communities; details: 25 μg ml^−1
Description: The dried powder was re-suspended in sterile deionized water and made up to 2 mg ml^−1.
The same bacterial strains were used and cultured the same way as in disc inhibition assay. Cells were harvested by centrifugation at 300 rpm for 10 min. The supernatant was discarded and the pellet re-suspended using sterile seawater collected from St. John's island, Singapore. The concentration of bacterial cells was adjusted to an absorbance of approximately 0.6 using a spectrophotometer (Beckman DU530) at wavelength 600 nm.
The growth with response to the pharmaceuticals was assumed to be proportional to the absorbance of the bacteria. […] To each well 25 μl of each drug solution (concentration adjusted to 100 μg ml^−1) were pipetted into three wells followed by 10 μl of broth and 65 μl of sterile seawater. For wells that were to contain bacteria, 60 μl of sterile seawater was used instead. All wells used for growth studies were prepared in triplicate and inoculated with 5 μl of the bacterial suspension. Blanks consisting of the respective volumes of pharmaceutical with Marine Broth and distilled water, if needed, were prepared in triplicate and inoculated with 5 μl of sterile seawater.
The absorbance (A600) of each well was read in a plate reader (Sunrise Tecan Model F039300) immediately (time=0 hours) and after 1, 2, 3, 4, 20, 23 and 28 hours. Plates were incubated overnight inside a moistened airtight container.
Any changes in absorbance were plotted and compared with control. The mean absorbance (mean bac) from the bacteria was obtained by deducting the absorbance values of blank wells (containing seawater and broth only) from that for the control wells (containing bacteria in seawater and broth only). The absorbance arising from the drugs was obtained from the 0 hr reading for wells containing drugs and bacteria, minus the wells with drugs alone (mean “drug”). The growth assays were repeated three times.

CNCCC(Oc1ccc(C(F)(F)F)cc1)c1ccccc1 (centres unmarked) [PZC, fluoxetine hydrochloride]
Activity against the three Vibrio strains tested [1]: exhibited activity against the three Vibrio strains tested
Antibiotic activity against marine bacteria [1]: strongest activity
Number of strains inhibited out of 26 strains [1]: 23
Strains showing no inhibition (of 26) [1]: only strain 6 was not inhibited
Antibiotic activity against marine bacteria ([1]; crude rank, best (1) to worst (8)): 2
zone of inhibition at 25 µg/disc ([1]; strain 1 (Rhodovulum)): < 5 mm
zone of inhibition at 50 µg/disc ([1]; strain 1 (Rhodovulum)): 5 to 9 mm
zone of inhibition at 25 µg/disc ([1]; strain 2 (Erythrobacter)): 10 to 19 mm
zone of inhibition at 50 µg/disc ([1]; strain 2 (Erythrobacter)): 10 to 19 mm
zone of inhibition at 25 µg/disc ([1]; strain 3 (Erythrobacter)): 10 to 19 mm
zone of inhibition at 50 µg/disc ([1]; strain 3 (Erythrobacter)): 10 to 19 mm
zone of inhibition at 25 µg/disc ([1]; strain 4 (Bacillus)): 10 to 19 mm
zone of inhibition at 50 µg/disc ([1]; strain 4 (Bacillus)): 20 to 29 mm
zone of inhibition at 25 µg/disc ([1]; strain 6 (Vibrio)): < 5 mm
zone of inhibition at 50 µg/disc ([1]; strain 6 (Vibrio)): < 5 mm
zone of inhibition at 25 µg/disc ([1]; strain 7 (Vibrio)): < 5 mm
zone of inhibition at 50 µg/disc ([1]; strain 7 (Vibrio)): 10 to 19 mm
zone of inhibition at 25 µg/disc ([1]; strain 8 (Bacillus)): 10 to 19 mm
zone of inhibition at 50 µg/disc ([1]; strain 8 (Bacillus)): 20 to 29 mm
zone of inhibition at 25 µg/disc ([1]; strain 9 (Bacillus)): 10 to 19 mm
zone of inhibition at 50 µg/disc ([1]; strain 9 (Bacillus)): 10 to 19 mm
zone of inhibition at 25 µg/disc ([1]; strain 10 (Halobacillus)): 10 to 19 mm
zone of inhibition at 50 µg/disc ([1]; strain 10 (Halobacillus)): 10 to 19 mm
zone of inhibition at 25 µg/disc ([1]; strain 11 (Pseudomonas)): 10 to 19 mm
zone of inhibition at 50 µg/disc ([1]; strain 11 (Pseudomonas)): 20 to 29 mm
zone of inhibition at 25 µg/disc ([1]; strain 12 (Gordonia)): 10 to 19 mm
zone of inhibition at 50 µg/disc ([1]; strain 12 (Gordonia)): 20 to 29 mm
zone of inhibition at 25 µg/disc ([1]; strain 13 (Bacillus)): 10 to 19 mm
zone of inhibition at 50 µg/disc ([1]; strain 13 (Bacillus)): 10 to 19 mm
zone of inhibition at 25 µg/disc ([1]; strain 14 (Vibrio)): 10 to 19 mm
zone of inhibition at 50 µg/disc ([1]; strain 14 (Vibrio)): 10 to 19 mm
zone of inhibition at 25 µg/disc ([1]; strain 16 (Pseudoalteromonas)): 5 to 9 mm
zone of inhibition at 50 µg/disc ([1]; strain 16 (Pseudoalteromonas)): 10 to 19 mm
zone of inhibition at 25 µg/disc ([1]; strain 17 (Gordonia)): 10 to 19 mm
zone of inhibition at 50 µg/disc ([1]; strain 17 (Gordonia)): 20 to 29 mm
zone of inhibition at 25 µg/disc ([1]; strain 18 (Microbacterium)): 10 to 19 mm
zone of inhibition at 50 µg/disc ([1]; strain 18 (Microbacterium)): 10 to 19 mm
zone of inhibition at 25 µg/disc ([1]; strain 19 (Erythrobacter)): 10 to 19 mm
zone of inhibition at 50 µg/disc ([1]; strain 19 (Erythrobacter)): 20 to 29 mm
zone of inhibition at 25 µg/disc ([1]; strain 20): 10 to 19 mm
zone of inhibition at 50 µg/disc ([1]; strain 20): 10 to 19 mm
zone of inhibition at 25 µg/disc ([1]; strain 21): 5 to 9 mm
zone of inhibition at 50 µg/disc ([1]; strain 21): 10 to 19 mm
zone of inhibition at 25 µg/disc ([1]; strain 22): 10 to 19 mm
zone of inhibition at 50 µg/disc ([1]; strain 22): 10 to 19 mm
zone of inhibition at 25 µg/disc ([1]; strain 24): 5 to 9 mm
zone of inhibition at 50 µg/disc ([1]; strain 24): 10 to 19 mm
zone of inhibition at 25 µg/disc ([1]; strain 26): 5 to 9 mm
zone of inhibition at 50 µg/disc ([1]; strain 26): 5 to 9 mm
zone of inhibition at 25 µg/disc ([1]; strain 27): 20 to 29 mm
zone of inhibition at 50 µg/disc ([1]; strain 27): 20 to 29 mm
zone of inhibition at 25 µg/disc ([1]; strain 28): 10 to 19 mm
zone of inhibition at 50 µg/disc ([1]; strain 28): 10 to 19 mm
zone of inhibition at 25 µg/disc ([1]; strain 29): 10 to 19 mm
zone of inhibition at 50 µg/disc ([1]; strain 29): 20 to 29 mm
zone of inhibition at 25 µg/disc ([1]; strain 30): 10 to 19 mm
zone of inhibition at 50 µg/disc ([1]; strain 30): 10 to 19 mm
Number of strains with strongly inhibited growth (marine bacteria; 25 strains of Table 5): 3
Inhibition of bacterial growth (marine bacteria; strain 1 (Rhodovulum)): 0
Inhibition of bacterial growth (marine bacteria; strain 2 (Erythrobacter)): + (+ denotes growth present but inhibited, p < 0.01)
Inhibition of bacterial growth (marine bacteria; strain 3 (Erythrobacter)): + (+ denotes growth present but inhibited, p < 0.01)
Inhibition of bacterial growth (marine bacteria; strain 4 (Bacillus)): 0
Inhibition of bacterial growth (marine bacteria; strain 6 (Vibrio)): 0
Inhibition of bacterial growth (marine bacteria; strain 7 (Vibrio)): + (+ denotes growth present but inhibited, p < 0.01)
Inhibition of bacterial growth (marine bacteria; strain 8 (Bacillus)): + (+ denotes growth present but inhibited, p < 0.01)
Inhibition of bacterial growth (marine bacteria; strain 9 (Bacillus)): + (+ denotes growth present but inhibited, p < 0.01)
Inhibition of bacterial growth (marine bacteria; strain 10 (Halobacillus)): +++ (+++ denotes little or no growth, p < 0.001)
Inhibition of bacterial growth (marine bacteria; strain 11 (Pseudomonas)): + (+ denotes growth present but inhibited, p < 0.01)
Inhibition of bacterial growth (marine bacteria; strain 12 (Gordonia)): + (+ denotes growth present but inhibited, p < 0.01)
Inhibition of bacterial growth (marine bacteria; strain 13 (Bacillus)): + (+ denotes growth present but inhibited, p < 0.01)
Inhibition of bacterial growth (marine bacteria; strain 14 (Vibrio)): 0
Inhibition of bacterial growth (marine bacteria; strain 16 (Pseudoalteromonas)): 0
Inhibition of bacterial growth (marine bacteria; strain 17 (Gordonia)): +++ (+++ denotes little or no growth, p < 0.001)
Inhibition of bacterial growth (marine bacteria; strain 18 (Microbacterium)): + (+ denotes growth present but inhibited, p < 0.01)
Inhibition of bacterial growth (marine bacteria; strain 19 (Erythrobacter)): + (+ denotes growth present but inhibited, p < 0.01)
Inhibition of bacterial growth (marine bacteria; strain 20): + (+ denotes growth present but inhibited, p < 0.01)
Inhibition of bacterial growth (marine bacteria; strain 21): 0
Inhibition of bacterial growth (marine bacteria; strain 24): 0
Inhibition of bacterial growth (marine bacteria; strain 26): 0
Inhibition of bacterial growth (marine bacteria; strain 27): + (+ denotes growth present but inhibited, p < 0.01)
Inhibition of bacterial growth (marine bacteria; strain 28): 0
Inhibition of bacterial growth (marine bacteria; strain 29): + (+ denotes growth present but inhibited, p < 0.01)
Inhibition of bacterial growth (marine bacteria; strain 30): +++ (+++ denotes little or no growth, p < 0.001)
